Values quoted from earlier work in patent US8088597B2, “Blood pressure lowering peptides from glycomacropeptide” (DSM IP Assets B.V., priority 2005, dated 2012).

What was measured:
[1] = molecular target: ACE (Homo sapiens, UniProt P12821); conditions: reported in the literature
[2] = tested on: spontaneously hypertensive rats; conditions: tripeptides derived from lactic acid bacteria fermented bovine milk; Nakamura et al. 1995

Sequence of ACE (P12821 30-1306, species assumed): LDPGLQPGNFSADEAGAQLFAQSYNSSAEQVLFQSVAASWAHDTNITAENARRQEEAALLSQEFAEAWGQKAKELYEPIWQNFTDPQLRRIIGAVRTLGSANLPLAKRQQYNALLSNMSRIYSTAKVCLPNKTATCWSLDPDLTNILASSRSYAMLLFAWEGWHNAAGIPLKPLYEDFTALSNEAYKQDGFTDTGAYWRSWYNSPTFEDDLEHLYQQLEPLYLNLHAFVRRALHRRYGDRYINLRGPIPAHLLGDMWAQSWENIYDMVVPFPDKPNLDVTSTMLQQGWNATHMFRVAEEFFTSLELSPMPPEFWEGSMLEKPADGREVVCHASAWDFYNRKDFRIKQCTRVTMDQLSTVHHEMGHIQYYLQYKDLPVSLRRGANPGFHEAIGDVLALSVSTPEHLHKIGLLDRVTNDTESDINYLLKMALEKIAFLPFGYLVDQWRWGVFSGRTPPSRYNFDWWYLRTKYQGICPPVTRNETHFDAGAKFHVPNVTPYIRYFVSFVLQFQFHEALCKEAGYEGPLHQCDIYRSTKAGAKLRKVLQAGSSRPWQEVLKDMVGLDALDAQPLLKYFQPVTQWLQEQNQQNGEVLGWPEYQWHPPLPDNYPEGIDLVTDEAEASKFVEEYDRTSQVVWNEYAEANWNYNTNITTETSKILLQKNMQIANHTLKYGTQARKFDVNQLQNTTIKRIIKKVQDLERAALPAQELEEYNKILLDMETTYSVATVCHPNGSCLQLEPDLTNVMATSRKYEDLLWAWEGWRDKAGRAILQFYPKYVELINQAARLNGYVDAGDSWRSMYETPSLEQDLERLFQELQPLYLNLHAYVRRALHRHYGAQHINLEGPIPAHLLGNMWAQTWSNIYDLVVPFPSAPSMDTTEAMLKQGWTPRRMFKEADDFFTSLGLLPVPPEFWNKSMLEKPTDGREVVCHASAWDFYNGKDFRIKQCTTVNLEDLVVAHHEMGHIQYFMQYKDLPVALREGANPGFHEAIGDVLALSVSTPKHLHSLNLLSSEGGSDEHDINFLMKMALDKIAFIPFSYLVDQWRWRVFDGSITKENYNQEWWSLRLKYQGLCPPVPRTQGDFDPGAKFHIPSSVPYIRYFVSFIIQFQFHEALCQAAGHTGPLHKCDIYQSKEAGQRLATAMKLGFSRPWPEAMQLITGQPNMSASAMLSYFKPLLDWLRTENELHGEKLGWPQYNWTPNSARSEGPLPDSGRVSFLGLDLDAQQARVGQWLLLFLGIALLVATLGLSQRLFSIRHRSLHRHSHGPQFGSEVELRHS

For Ile-Pro-Pro, the ACE inhibiting activity [1] is listed as “Strong ACE inhibiting activities” and the antihypertensive effects [2] is listed as “confirmed”.
For Val-Pro-Pro, the ACE inhibiting activity [1] is listed as “Strong ACE inhibiting activities” and the antihypertensive effects [2] is listed as “confirmed”.
In the case of Leu-Pro-Pro, the ACE inhibiting activity [1] is listed as “Strong ACE inhibiting activities”.
